Experimental data: publication PMC9656811, “Structure-Based Discovery and Biological Assays of a Novel PRMT5 Inhibitor for Non-Small Cell Lung Cancer” (Molecules, 2022)

Molecular target: Protein arginine methyltransferase 5 (PRMT5) (Homo sapiens, UniProt O14744)
Experiment: AlphaLISA methyltransferase assay, […] concentrations, PRMT5 from BPS Bioscience (Cat. No. […])
Assay type: biochemical

Sequence of Protein arginine methyltransferase 5 (PRMT5) (O14744 2-637): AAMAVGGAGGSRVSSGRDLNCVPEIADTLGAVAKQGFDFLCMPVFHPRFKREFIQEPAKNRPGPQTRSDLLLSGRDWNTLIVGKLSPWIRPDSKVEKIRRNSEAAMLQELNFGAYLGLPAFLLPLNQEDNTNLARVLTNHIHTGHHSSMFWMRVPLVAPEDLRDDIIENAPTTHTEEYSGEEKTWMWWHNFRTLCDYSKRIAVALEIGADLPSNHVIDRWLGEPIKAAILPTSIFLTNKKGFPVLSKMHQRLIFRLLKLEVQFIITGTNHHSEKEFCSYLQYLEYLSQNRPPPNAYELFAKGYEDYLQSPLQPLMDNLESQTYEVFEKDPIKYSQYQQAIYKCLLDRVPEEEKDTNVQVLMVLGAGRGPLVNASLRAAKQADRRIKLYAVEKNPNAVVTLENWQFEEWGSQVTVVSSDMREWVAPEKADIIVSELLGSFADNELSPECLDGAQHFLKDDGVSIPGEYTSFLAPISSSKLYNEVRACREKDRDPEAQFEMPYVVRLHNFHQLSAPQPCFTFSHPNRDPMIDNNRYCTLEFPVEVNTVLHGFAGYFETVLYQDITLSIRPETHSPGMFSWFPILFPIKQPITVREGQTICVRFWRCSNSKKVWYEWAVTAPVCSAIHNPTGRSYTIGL
Sequence of Protein arginine methyltransferase 5 (PRMT5) (Q9BQA1 whole entry partner): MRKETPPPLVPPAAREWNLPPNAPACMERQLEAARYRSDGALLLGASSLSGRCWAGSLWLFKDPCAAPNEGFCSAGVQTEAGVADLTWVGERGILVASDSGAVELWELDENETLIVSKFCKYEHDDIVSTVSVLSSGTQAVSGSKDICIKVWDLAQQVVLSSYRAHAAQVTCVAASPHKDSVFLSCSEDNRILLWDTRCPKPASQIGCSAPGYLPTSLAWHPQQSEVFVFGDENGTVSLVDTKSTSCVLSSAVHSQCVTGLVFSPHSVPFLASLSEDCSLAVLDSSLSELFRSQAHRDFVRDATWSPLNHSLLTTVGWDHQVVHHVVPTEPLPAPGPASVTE

IC50: 63 µM
Structure (SMILES): O=C1c2ccccc2C(=O)c2c(NCCCN(CCO)CCO)cccc21 [3039-0164]
